Reference: paper PMC5011342, “A high throughput drug screening assay to identify compounds that promote oligodendrocyte differentiation using acutely dissociated and purified oligodendrocyte precursor cells” (BMC Research Notes, 2016)
pEC50: −log10 of the molar value. Where two headings read alike, the source gives them in different places.

Experiments:
[1] = test system: acutely dissociated and purified rat OPCs; assay: Acute OL differentiation assay (MBP expression/cell, immunofluorescent image quantification); type: cell-based; details: for pEC50: average EC50 for induction of OL differentiation from independent biological replicates, eight concentrations; for hit in OL differentiation assay, MRF-TMC: ● = confirmed hit in this paper's assay
Outline: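 Oligodendrocyte precursor cells were enriched from P6-P7 Sprague–Dawley rat brains by immunopanning (RAN-2 and GalC depletion, O4 selection), plated at 5000 cells/well in serum-free, mitogen-free differentiation media on PDL/laminin 96-well view plates, centrifuged at 200×g, and pre-incubated 1–2 h before test compounds were added in quadruplicate. On DIV4, cells were fixed, stained for MBP and DAPI, imaged automatically, and MBP expression per cell was quantified.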

expanded OPCs = assay: cells; details: for viability at 0.1 µM / viability at 1 µM / viability at 10 µM: Rattus norvegicus, 72 h
Outline: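 Expanded OPCs seeded at 10,000 cells/well in differentiation media, then exposed to NCC library compounds at 10, 1 and 0.1 µM (quadruplicate, 0.1% DMSO) for three days. Viability read as alamarBlue fluorescence (560/590 nm) after 4 h at 37 °C; tunicamycin 5 ng/ml served as toxicity control.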

[2] = Rattus norvegicus, test compound at 2 uM, MBP expression relative to quetiapine, NCC library screen, sheet "All OLga data", read-out: 2 uM (% Quet)
[3] = Rattus norvegicus, test compound at 10 uM, MBP expression relative to quetiapine, NCC library screen, sheet "All OLga data", read-out: 10 uM (% Quet)
[4] = alamarBlue viability of expanded OPCs, compound at 0.1 µM, relative to DMSO control
[5] = alamarBlue viability of expanded OPCs, compound at 1 µM, relative to DMSO control
[6] = alamarBlue viability of expanded OPCs, compound at 10 µM, relative to DMSO control
[7] = test compound at 2 uM, NCC library screen, sheet "All OLga data", relative to quetiapine
[8] = test compound at 10 uM, NCC library screen, sheet "All OLga data", relative to quetiapine
[9] = alamarBlue viability, NCC library compound at 0.1 µM, sheet "All Tox data"
[10] = alamarBlue viability, NCC library compound at 1 µM, sheet "All Tox data"
[11] = alamarBlue viability, NCC library compound at 10 µM, sheet "All Tox data"
[12] = Rattus norvegicus, 0.4 uM test compound, relative to quetiapine, sheet "All OLga data", read-out: OL differentiation, 0.4 uM (% Quet)
[13] = Rattus norvegicus, 2 uM test compound, relative to quetiapine, sheet "All OLga data", read-out: OL differentiation, 2 uM (% Quet)
[14] = read-out: 0.1 µM (% DMSO), alamarBlue viability of expanded OPCs, compound at 0.1 µM, sheet All Tox data
[15] = read-out: 1 µM (% DMSO), alamarBlue viability of expanded OPCs, compound at 1 µM, sheet All Tox data
[16] = read-out: 10 µM (% DMSO), alamarBlue viability of expanded OPCs, compound at 10 µM, sheet All Tox data
[17] = Rattus norvegicus, test compound at 0.4 uM, MBP expression relative to quetiapine, NCC library screen, sheet "All OLga data", read-out: 0.4 uM (% Quet)
[18] = Rattus norvegicus, test compound at 2 uM, NCC library screen, sheet "All OLga data", relative to quetiapine, read-out: 2 uM (% Quet)
[19] = Rattus norvegicus, test compound at 10 uM, NCC library screen, sheet "All OLga data", relative to quetiapine, read-out: 10 uM (% Quet)
[20] = read-out: 0.1 µM (% DMSO), alamarBlue viability, NCC library compound at 0.1 µM, sheet "All Tox data"
[21] = read-out: 1 µM (% DMSO), alamarBlue viability, NCC library compound at 1 µM, sheet "All Tox data"
[22] = read-out: 10 µM (% DMSO), alamarBlue viability, NCC library compound at 10 µM, sheet "All Tox data"
[23] = Rattus norvegicus, 10 uM test compound, relative to quetiapine, sheet "All OLga data", read-out: OL differentiation, 10 uM (% Quet)

Cn1cnc([N+](=O)[O-])c1Sc1ncnc2nc[nH]c12 [Azathioprine]
activation at 2 µM [1, 2]: -21.2% | activation at 10 µM [1, 3]: -94.3% | 0.1 µM (% DMSO) (expanded OPCs; [4]): 90.4 % DMSO | 1 µM (% DMSO) (expanded OPCs; [5]): 91.6 % DMSO | 10 µM (% DMSO) (expanded OPCs; [6]): 63.6 % DMSO

O=c1cnn([C@@H]2O[C@H](CO)[C@@H](O)[C@H]2O)c(=O)[nH]1 [Azauridine]
2 uM (% Quet) [1, 7]: -8.7 % Quet | 10 uM (% Quet) [1, 8]: -6.4 % Quet | 0.1 µM (% DMSO) (expanded OPCs; [9]): 94.5 % DMSO | 1 µM (% DMSO) (expanded OPCs; [10]): 93.6 % DMSO | 10 µM (% DMSO) (expanded OPCs; [11]): 80.3 % DMSO

CN1CCCC(n2nc(Cc3ccc(Cl)cc3)c3ccccc3c2=O)CC1 (stereo not shown) [Azelastine]
activation at 0.4 µM [1, 12]: 1% | activation at 2 µM [1, 13]: -19% | viability at 0.1 µM (expanded OPCs; [14]): 90.1% | viability at 1 µM (expanded OPCs; [15]): 51.5% | viability at 10 µM (expanded OPCs; [16]): 12%

CC[C@H]1OC(=O)[C@H](C)[C@@H](O[C@H]2C[C@@](C)(OC)[C@@H](O)[C@H](C)O2)[C@H](C)[C@@H](O[C@@H]2O[C@H](C)C[C@H](N(C)C)[C@H]2O)[C@](C)(O)C[C@@H](C)CN(C)[C@H](C)[C@@H](O)[C@]1(C)O [Azithromycin]
activation at 0.08 µM ([1]; Rattus norvegicus, test compound at 0.08 uM, MBP expression relative to quetiapine, NCC library screen, sheet "All OLga data", read-out: 0.08 uM (% Quet)): 8.2% | activation at 0.4 µM [1, 17]: -7.2% | 0.1 µM (% DMSO) (expanded OPCs; [4]): 76.1 % DMSO | 1 µM (% DMSO) (expanded OPCs; [5]): 40.6 % DMSO | 10 µM (% DMSO) (expanded OPCs; [6]): 25.1 % DMSO

CC1(C)O[C@@H]2C[C@H]3[C@@H]4CCC5=CC(=O)C=C[C@]5(C)[C@@]4(F)[C@@H](O)C[C@]3(C)[C@]2(C(=O)CO)O1 [Azmacort]
activation at 2 µM [1, 2]: 24.2% | activation at 10 µM [1, 3]: -114% | 0.1 µM (% DMSO) (expanded OPCs; [4]): 95.7 % DMSO | 1 µM (% DMSO) (expanded OPCs; [5]): 95.0 % DMSO | 10 µM (% DMSO) (expanded OPCs; [6]): 69.5 % DMSO

O=C(O)CCNC(=O)c1ccc(/N=N/c2ccc(O)c(C(=O)O)c2)cc1 [Balsalazide]
activation at 2 µM [1, 18]: 10.7% | activation at 10 µM [1, 19]: 19.1% | viability at 0.1 µM (expanded OPCs; [20]): 88.1% | viability at 1 µM (expanded OPCs; [21]): 92% | viability at 10 µM (expanded OPCs; [22]): 85.1%

C[C@H]1C[C@H]2[C@@H]3CCC4=CC(=O)C=C[C@]4(C)[C@@]3(Cl)[C@@H](O)C[C@]2(C)[C@@]1(O)C(=O)CO [Beclomethasone]
2 uM (% Quet) ([1]; test compound at 2 uM, MBP expression relative to quetiapine, NCC library screen, sheet "All OLga data"): -121.4 % Quet | 2 uM (% Quet) [1, 7]: -1.4 % Quet | 10 uM (% Quet) ([1]; test compound at 10 uM, MBP expression relative to quetiapine, NCC library screen, sheet "All OLga data"): -191.3 % Quet | 10 uM (% Quet) [1, 8]: -5.2 % Quet | 0.1 µM (% DMSO) (expanded OPCs): 90.7 % DMSO | 1 µM (% DMSO) (expanded OPCs): 90.4 % DMSO | 10 µM (% DMSO) (expanded OPCs): 81.7 % DMSO | 0.1 µM (% DMSO) (expanded OPCs; [9]): 110.9 % DMSO | 1 µM (% DMSO) (expanded OPCs; [10]): 114.8 % DMSO | 10 µM (% DMSO) (expanded OPCs; [11]): 117.6 % DMSO

CCN(CC)CCOC(=O)C(O)(c1ccccc1)c1ccccc1 [Benactyzine]
activation at 2 µM ([1]; Rattus norvegicus, read-out: 2 uM (% Quet)): -1.9% | activation at 10 µM ([1]; Rattus norvegicus, read-out: 10 uM (% Quet)): -2.1% | viability at 0.1 µM (expanded OPCs; read-out: 0.1 µM (% DMSO)): 100% | viability at 1 µM (expanded OPCs; read-out: 1 µM (% DMSO)): 88.2% | viability at 10 µM (expanded OPCs; read-out: 10 µM (% DMSO)): 90%

CCOC(=O)[C@H](CCc1ccccc1)N[C@H]1CCc2ccccc2N(CC(=O)O)C1=O [Benazepril]
activation at 2 µM [1, 13]: -27.7% | activation at 10 µM [1, 23]: -26.2% | viability at 0.1 µM (expanded OPCs; [14]): 84.6% | viability at 1 µM (expanded OPCs; [15]): 88.2% | viability at 10 µM (expanded OPCs; [16]): 93.6%

NS(=O)(=O)c1cc2c(cc1C(F)(F)F)NC(Cc1ccccc1)NS2(=O)=O (stereo not shown) [Bendroflumethiazide]
activation at 2 µM [1, 2]: -41.7% | activation at 10 µM [1, 3]: -47.6% | 0.1 µM (% DMSO) (expanded OPCs; [4]): 95.4 % DMSO | 1 µM (% DMSO) (expanded OPCs; [5]): 93.1 % DMSO | 10 µM (% DMSO) (expanded OPCs; [6]): 98.5 % DMSO

COC(=O)C1=C(C)NC(C)=C(C(=O)OC2CCCN(Cc3ccccc3)C2)C1c1cccc([N+](=O)[O-])c1 (stereo not shown) [Benidipine]
activation at 0.4 µM [1, 12]: 7.1% | activation at 2 µM [1, 13]: 3.1% | viability at 0.1 µM (expanded OPCs; [14]): 84.6% | viability at 1 µM (expanded OPCs; [15]): 93% | viability at 10 µM (expanded OPCs; [16]): 11.6%

CC(COc1ccccc1Cc1ccccc1)N1CCCCC1 (stereo not shown) [Benproperine, reference compound]
activation at 0.4 µM [1, 12]: 82.1% | activation at 2 µM [1, 13]: 99.4% | pEC50 ([1]; Rattus norvegicus): 6.10 | hit in OL differentiation assay, MRF-TMC [1]: ● | viability at 0.1 µM (expanded OPCs; [14]): 105% | viability at 1 µM (expanded OPCs; [15]): 123% | viability at 10 µM (expanded OPCs; [16]): 20.9%

CN1[C@@H]2CC[C@H]1C[C@@H](OC(c1ccccc1)c1ccccc1)C2 [Benzatropine]
activation at 0.4 µM [1, 17]: 123% | activation at 2 µM [1, 2]: 102% | 0.1 µM (% DMSO) (expanded OPCs; [4]): 139.9 % DMSO | 1 µM (% DMSO) (expanded OPCs; [5]): 133.9 % DMSO | 10 µM (% DMSO) (expanded OPCs; [6]): 38.5 % DMSO

CCc1oc2ccccc2c1C(=O)c1cc(Br)c(O)c(Br)c1 [Benzbromarone]
activation at 0.4 µM ([1]; Rattus norvegicus, test compound at 0.4 uM, NCC library screen, sheet "All OLga data", relative to quetiapine, read-out: 0.4 uM (% Quet)): -1.1% | activation at 2 µM [1, 18]: 23.7% | viability at 0.1 µM (expanded OPCs; [20]): 95.3% | viability at 1 µM (expanded OPCs; [21]): 93.2% | viability at 10 µM (expanded OPCs; [22]): 35.6%

CC(C)NCC(O)COc1ccc(CCOCC2CC2)cc1 (stereo not shown) [Betaxolol, reference compound]
activation at 2 µM [1, 13]: 32.8% | activation at 10 µM [1, 23]: 51.8% | pEC50 ([1]; Rattus norvegicus): 5.38 | hit in OL differentiation assay, MRF-TMC [1]: ● | viability at 0.1 µM (expanded OPCs; [20]): 102% | viability at 1 µM (expanded OPCs; [21]): 97.8% | viability at 10 µM (expanded OPCs; [22]): 104%

CC(C[N+](C)(C)C)OC(N)=O (stereo not shown) [Bethanechol]
activation at 2 µM [1, 2]: -1% | activation at 10 µM [1, 3]: -21.7% | 0.1 µM (% DMSO) (expanded OPCs; [4]): 87.6 % DMSO | 1 µM (% DMSO) (expanded OPCs; [5]): 93.0 % DMSO | 10 µM (% DMSO) (expanded OPCs; [6]): 88.2 % DMSO

CC(O)(CS(=O)(=O)c1ccc(F)cc1)C(=O)Nc1ccc(C#N)c(C(F)(F)F)c1 (stereo not shown) [Bicalutamide]
activation at 2 µM [1, 13]: -3% | activation at 10 µM [1, 23]: 6.9% | viability at 0.1 µM (expanded OPCs; [14]): 93.3% | viability at 1 µM (expanded OPCs; [15]): 96% | viability at 10 µM (expanded OPCs; [16]): 119%

c1ccc(-c2ccc(C(c3ccccc3)n3ccnc3)cc2)cc1 (stereo not shown) [Bifonazole, reference compound]
activation at 0.4 µM [1, 12]: 67.3% | activation at 2 µM [1, 13]: 105% | pEC50 ([1]; Rattus norvegicus): 5.77 | hit in OL differentiation assay, MRF-TMC [1]: ● | viability at 0.1 µM (expanded OPCs; [20]): 121% | viability at 1 µM (expanded OPCs; [21]): 187% | viability at 10 µM (expanded OPCs; [22]): 11.9%

O=C1CC2(CCCC2)CC(=O)N1CCNCC1COc2ccccc2O1 (stereo not shown) [Binospirone]
activation at 2 µM [1, 18]: 37.7% | activation at 10 µM [1, 19]: 14.1% | viability at 0.1 µM (expanded OPCs; [20]): 96% | viability at 1 µM (expanded OPCs; [21]): 97.6% | viability at 10 µM (expanded OPCs; [22]): 97.4%
